pIC50: −log10 of the molar value. Where two headings read alike, the source gives them in different places.
Experiments:
647V cells = experiment: High throughput proliferation (HTP) assay; assay type: cell-based; conditions: high throughput proliferation, read-out: CREBBP HTP IC50
From the text: The following example describes methods and materials relating to a high throughput proliferation (HTP) assay. IC50 values (micromolar) are summarized in Table 1, Table 2, and Table 3 under the column labeled: “CREBBP HTP IC50 (micromolar).”
MATERIALS: 647V cell line, Dulbecco's MEM, penicillin-streptomycin, heat inactivated fetal bovine serum, D-PBS, and CellTiter-Glo were commercially available.
647V adherent cells were maintained in complete growth medium (Dulbecco's MEM supplemented with 15% v/v heat inactivated fetal bovine serum) and cultured at 37° C. under 5% CO2.
METHOD: Measurement of the effect of compound in High Throughput Proliferation (HTP) assays was performed as follows: Exponentially growing 647V cells were plated, in triplicate, in 384-well plates at the appropriate cell density in a final volume of 50 μl. Cells were incubated in the presence of increasing concentrations of compound. Viable cell number was determined at day 7 by addition of 35 μl CellTiter-Glo to each well of the plate, incubated in the dark for 30 minutes, and read on a PerkinElmer EnVision instrument to enumerate the number of cells.

[1] = system: H3K18Ac in HB-CLS-2 cells; experiment: H3K18AC in-cell western (ICW) assay; assay type: cell-based; conditions: H3K18Ac in-cell western, read-out: CREBBP ICW IC50
From the text: The following example describes methods and materials relating to an H3K18AC in-cell western assay. IC50 values (micromolar (μM)) are summarized in Table 1, Table 2, and Table 3 under the column labeled: “CREBBP ICW IC50 (micromolar).”
MATERIALS: HB-CLS-2 cell line, DMEM: Ham's F12 medium (1:1 mixture), penicillin-streptomycin, heat inactivated fetal bovine serum, D-PBS, Odyssey blocking buffer, 800CW goat anti-rabbit IgG (H+L) antibody, Licor Odyssey CLx Infrared Scanner, H3K18Ac rabbit monoclonal antibody. DRAQS fluorescent probe solution (5 mM), and 100% methanol were commercially available. HB-CLS-2 adherent cells were maintained in complete growth medium (DMEM: Ham's F12 supplemented with 10% v/v heat inactivated fetal bovine serum) and cultured at 37° C. under 5% CO2.
METHOD: Cell Treatment, ICW for detection of H3K18Ac and DNA content. HB-CLS-2 cells were seeded in assay medium (DMEM: Ham's F12 supplemented with 10% v/v heat inactivated fetal bovine serum and 1% Penicillin/Streptomycin) at a concentration of 80,000 cells per mL in a Poly-D-Lysine coated 384-well culture plates at 50 μL per well. Plates were incubated at room temperature for 30 minutes and then incubated at 37° C., 5% CO2 for additional 16-24 hours. Compounds and DMSO normalization were then added directly to the plates using a D300 Digital Dispenser and returned to the incubator at 37° C., 5% CO2 for 2 hrs. After the incubation, the contents of the plates were discarded into the appropriate waste stream and blotted on laboratory tissue to remove residual liquid. 90 μL per well of 100% ice cold methanol was added to the plates and incubated at room temperature for 15 minutes. Then methanol was then discarded into the appropriate waste stream and the plates again blotted on laboratory tissue to remove residual liquid. Plates were transferred to a Biotek 405 plate washer and washed 3 times with 100 μL per well of wash buffer (1X PBS containing 0.1% Triton X-100 (v/v)). Next, 50 μL per well of Odyssey blocking buffer with 0.1% Tween 20 (v/v) was added to each plate and incubated for 1 hour at room temperature. Blocking buffer was removed and 20 μL of primary antibody were added (α-H3K18Ac diluted 1:800 in Odyssey buffer with 0.1% Tween 20 (v/v)) and plates were incubated overnight (16 hours) at 4° C. Plates were washed 5 times with 100 μL per well of wash buffer. Next 20 μL per well of secondary antibody was added (1:400 800CW goat anti-rabbit IgG (H+L) antibody, 1:2000 DRAQ5 in Odyssey buffer with 0.1% Tween 20 (v/v)) and incubated for 1 hour at room temperature. The plates were washed 3 times with 100 μL per well wash buffer then 3 times with 100 μL per well of water. Plates were allowed to dry at room temperature then imaged on the Licor Odyssey CLx machine which measured integrated intensity at 700 nm and 800 nm wavelengths. Both 700 and 800 channels were scanned.

CREBBP (1084-1701) = molecular target: T1, CREBBP (1084-1701) (Homo sapiens, UniProt Q92793); experiment: Biochemical assay for CREBBP (1084-1701), SAMDI; conditions: SAMDI, read-out: CREBBP Biochemistry IC50
T1 construct: measured in the following biochemical assay using CREBBP (1084-1701); purchased
From the text: The following example describes materials and methods relating to a biochemical assay for CREBBP (1084-1701). IC50 values (micromolar (μM)) are summarized in Table 1, Table 2, and Table 3 under the column labeled: “CREBBP Biochemistry IC50 (micromolar).”
MATERIALS: Reagents 1M Tris pH 8.0, Tween 20 10%, DTT, bovine serum gelatin (BSG) 2%, Peptide #233 (biotin-H3 11-25, K14R, K23R), Acetyl-CoA, CREBBP (1084-1701), formic acid (100%), and sodium bicarbonate were commercially available.
METHODS: The effect of compounds was measured in the following biochemical assay using CREBBP (1084-1701). Enzyme mix 30 μL per well was added using a Multi-drop to wells of prepared Compound Stock plate. The enzyme was incubated in the Compound Stock plate for 30 minutes at room temperature. Substrate mix, 20 μL per well, was added to Compound Stock plate using a Multi-drop. The plate was covered and incubate 30 minutes at room temperature. The reaction was stopped with addition of 5 μL per well of 5% formic acid using a Multi-drop. The plate was Incubated for 30 minutes at room temperature. The reaction mixture was neutralized with addition of 5 μL per well of 10% sodium bicarbonate using a Multi-drop. The plate was Incubated for 35 minutes at room temperature. The reaction mixture was Transferred 2.5 μL per well to a SAMDI biochip. The plate was Incubated for 60 minutes at room temperature. The samples were washed, dried, and matrix applied to SAMDI biochip. The SAMDI biochip was then read on the mass spectrometer.

T1 sequence (Q92793 1084-1701): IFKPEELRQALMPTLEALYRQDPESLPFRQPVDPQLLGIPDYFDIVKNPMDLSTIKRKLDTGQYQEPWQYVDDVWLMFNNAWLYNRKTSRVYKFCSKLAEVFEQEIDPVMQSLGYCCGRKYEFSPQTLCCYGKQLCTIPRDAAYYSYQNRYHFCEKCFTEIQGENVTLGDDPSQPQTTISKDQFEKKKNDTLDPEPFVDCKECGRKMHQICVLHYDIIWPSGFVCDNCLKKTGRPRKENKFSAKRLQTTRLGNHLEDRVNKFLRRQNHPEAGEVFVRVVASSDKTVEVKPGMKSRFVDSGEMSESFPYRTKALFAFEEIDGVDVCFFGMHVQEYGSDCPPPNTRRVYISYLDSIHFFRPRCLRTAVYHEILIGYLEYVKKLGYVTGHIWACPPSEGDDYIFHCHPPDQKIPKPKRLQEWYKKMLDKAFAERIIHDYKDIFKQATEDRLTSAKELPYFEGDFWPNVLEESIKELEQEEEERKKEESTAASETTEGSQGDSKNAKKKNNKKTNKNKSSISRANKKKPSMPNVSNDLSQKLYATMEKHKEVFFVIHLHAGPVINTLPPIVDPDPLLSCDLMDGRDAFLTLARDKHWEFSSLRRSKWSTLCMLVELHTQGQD

SMILES | pIC50 [1] | pIC50 ([1]; HB-CLS-2 cells) | pIC50 (CREBBP (1084-1701)) | pIC50 (647V cells; Homo sapiens, 647-V) | pIC50 (647V cells)
CCn1ncc(CN(C)C(=O)c2nc(-c3ccc4nc[nH]c4c3)nc3ccc(Cl)cc23)c1C [Compound 47] | 6.37 | – | – | 6.38 | –
CCn1ncc(CN(C)C(=O)c2nc(-c3ccc4[nH]cnc4c3)nc3ccc(Cl)cc23)c1C [Compound 57] | 6.18 | – | – | 6.30 | –
CCn1ncc(CN(C)C(=O)c2nc(-c3ccc4nc[nH]c4c3)nc3ccc(Cl)cc23)c1C [Compound 59] | 6.17 | – | – | – | 6.36
CCn1ncc(CN(C)C(=O)c2cc(-n3cc4c(n3)CN(C(=O)OC(C)(C)C)CC4)nc3ccc(Cl)cc23)c1C [Compound 178] | 4.77 | – | – | 5.32 | –
CCn1ncc(CN(C)C(=O)c2nc(-c3cc(Cl)cc(OCCCNC(=O)OC(C)(C)C)c3)nc3ccc(Cl)cc23)c1C [Compound 180] | 4.72 | – | – | 4.70 | –
CCn1ncc(CN(C)C(=O)c2nc(-n3ncc4c3CN(C(=O)OC(C)(C)C)CC4)nc3ccc(Cl)cc23)c1C [Compound 192] | 4.70 | – | – | 5.03 | –
CCn1ncc(CN(C)C(=O)c2nc(-n3cc4c(n3)CN(C(=O)OC(C)(C)C)CC4)nc3ccc(Cl)cc23)c1C [Compound 193] | 4.70 | – | – | 5.09 | –
CCn1ncc(CN(C)C(=O)c2nc(N3CCCN(C)CC3)nc3ccc(Cl)cc23)c1C [Compound 196] | 4.70 | – | – | 4.77 | –
CCn1ncc(CN(C)C(=O)c2nc(-c3ccc(C)cc3)nc3ccc(Cl)cc23)c1C [Compound 282] | – | 4.96 | 5.26 | – | –
CCN(Cc1cnn(CC)c1C)C(=O)c1cc(-c2ccccc2Cl)nc2ccc(Cl)cc12 [Compound 302] | – | 5.05 | 5.60 | – | –
CCn1ncc(CN(C)C(=O)c2cc(-c3cccc(Cl)c3)nc3ccc(NC)cc23)c1C [Compound 330] | – | 4.77 | 5.05 | – | –
CCN(Cc1cnn(CC)c1C)C(=O)c1nc(-c2cccc(Cl)c2)nc2ccc(Cl)cc12 [Compound 347] | – | 5.25 | 6.28 | – | –
CCn1ncc(CN(C)C(=O)c2cc(-c3ccccc3Cl)nc3c(C)cc(Cl)cc23)c1C [Compound 350] | – | 5.19 | 6.20 | – | –
CCn1ncc(CN(C)C(=O)c2nc(-c3cn[nH]c3)nc3ccc(Cl)cc23)c1C [Compound 358] | – | 4.89 | 4.80 | – | –
CCn1ncc(CN(C)C(=O)c2nc(-c3cncn3C)nc3ccc(Cl)cc23)c1C [Compound 363] | – | 5.13 | 5.04 | – | –
CCn1ncc(CN(C)C(=O)c2cc(-c3cccc(Cl)c3)nc3ccc(N(C)C)cc23)c1C [Compound 369] | – | 4.82 | 5.26 | – | –
CCc1ccc(-c2nc(C(=O)N(C)Cc3cnn(CC)c3C)c3cc(Cl)ccc3n2)cc1 [Compound 374] | – | 4.74 | 5.04 | – | –

Continued, in another order:

pIC50 [1] | pIC50 ([1]; HB-CLS-2 cells) | pIC50 (CREBBP (1084-1701)) | SMILES | pIC50 (647V cells; Homo sapiens, 647-V) | pIC50 (647V cells)
– | 5.89 | 6.08 | CCn1ncc(CN(C)C(=O)c2nc(-c3ccccc3OC)nc3ccc(Cl)cc23)c1C [Compound 281] | – | –
– | 6.17 | 9.05 | CCn1ncc(CN(C)C(=O)c2nc(-c3cccc(Br)c3)nc3ccc(Cl)cc23)c1C [Compound 283] | – | –
– | 5.57 | 5.38 | Cc1c(CN(C)C(=O)c2nc(-c3ccccc3Cl)nc3ccc(Cl)cc23)cnn1C1CC1 [Compound 285] | – | –
– | 6.24 | 6.66 | CCn1ncc(CN(C)C(=O)c2nc(-c3ccccc3C#N)nc3ccc(Cl)cc23)c1C [Compound 294] | – | –
– | 5.49 | 5.74 | CCn1ncc(CN(C)C(=O)c2nc(-c3cc(Cl)ccc3Cl)nc3ccc(Cl)cc23)c1C [Compound 297] | – | –
– | 6.21 | 7.55 | Cc1c(CN(C)C(=O)c2nc(-c3cccc(Cl)c3)nc3ccc(Cl)cc23)cnn1C(C)C [Compound 299] | – | –
– | 5.41 | 5.70 | CCn1ncc(CN(C)C(=O)c2nc(-c3cccc(C#N)c3)nc3ccc(Cl)cc23)c1C [Compound 301] | – | –
– | 6.24 | 7.14 | CCc1ccc2nc(-c3ccccc3Cl)nc(C(=O)N(C)Cc3cnn(CC)c3C)c2c1 [Compound 312] | – | –
– | 5.72 | 5.72 | CCn1ncc(CN(C)C(=O)c2nc(-c3cscn3)nc3ccc(Cl)cc23)c1C [Compound 313] | – | –
– | 5.77 | 6.46 | CCn1ncc(CN(C)C(=O)c2nc(-c3cccc(F)c3)nc3ccc(Cl)cc23)c1C [Compound 316] | – | –
– | 5.82 | 6.64 | CCn1ncc(CN(C)C(=O)c2nc(-c3cccc(C)c3)nc3ccc(Cl)cc23)c1C [Compound 317] | – | –
– | 5.82 | 6.28 | CCn1ncc(CN(C)C(=O)c2nc(-c3ccccc3F)nc3ccc(Cl)cc23)c1C [Compound 335] | – | –
– | 5.92 | 6.16 | CCc1ncc(CN(C)C(=O)c2cc(-c3ccccc3Cl)nc3ccc(Cl)cc23)n1C [Compound 336] | – | –
– | 5.64 | 6.20 | Cc1c(CN(C)C(=O)c2nc(-c3ccccc3Cl)nc3ccc(Cl)cc23)cnn1CC(F)(F)F [Compound 337] | – | –
– | 5.89 | 6.38 | CCn1ncc(CN(CCO)C(=O)c2nc(-c3cccc(Cl)c3)nc3ccc(Cl)cc23)c1C [Compound 346] | – | –
– | 5.72 | 6.40 | CCc1noc(CN(C)C(=O)c2nc(-c3ccccc3Cl)nc3ccc(Cl)cc23)c1C [Compound 356] | – | –
– | 6.14 | 7.55 | CCn1ncc(CN(C)C(=O)c2nc(-c3cccc(Cl)c3)nc3ccc(COC)cc23)c1C [Compound 357] | – | –
– | 6.00 | 6.40 | CCn1ncc(CN(C)C(=O)c2nc(-c3ccccc3Cl)nc3cc(C)c(Cl)cc23)c1C [Compound 359] | – | –
– | 6.32 | 8.55 | CCc1ccc2nc(-c3cccc(Cl)c3)nc(C(=O)N(C)Cc3cnn(CC)c3C)c2c1 [Compound 361] | – | –
– | 5.92 | 6.15 | CCn1ncc(CN(C)C(=O)c2nc(-c3ccccc3C)nc3ccc(Cl)cc23)c1C [Compound 362] | – | –
– | 5.35 | 5.64 | CCn1ncc(CN(C)C(=O)c2nc(-c3ccc(OC)cc3)nc3ccc(Cl)cc23)c1C [Compound 373] | – | –
